From patent US20150010928A1, “MEANS AND METHODS FOR ASSESSING AN ENDOCRINE DISEASE OR DISORDER” (priority 2012, published 2015)
Marks after values point to notes of the source that are not given here.

System: male rats
Experiment: Plasma metabolite profiling (GC-MS, LC-MS, SPE-LC-MS) in male rats dosed once daily over 28 days (OECD 407)
Format: in vivo, rat
Conditions: high dose; for Mannose: Table 15c
Procedure, shortened: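 Polar and lipid fractions profiled by GC-MS and LC-MS/MRM, steroids by online SPE-LC-MS; pool-normalized data compared to controls by Welch test as treatment ratios and p-values.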

SMILES: C[C@]12C=CC3=C4CCC(=O)C=C4CCC3C1CC[C@@H]2O (stereo partly drawn) [Trenbolone]
- Mannose (m7, male rats): 1.35 *
- 3,4-Dihydroxyphenylacetic acid (DOPAC) (m7, male rats, Table 16): 1.08
- 3,4-Dihydroxyphenylglycol (DOPEG) (m7, male rats, Table 16): 1.12
- Androstenedione (m7, male rats, Table 16): 0.09 *
- Citrate (m7, male rats, Table 16): 0.89 *
- Glycerol, polar fraction (m7, male rats, Table 16): 0.66 *
- Histamine (m7, male rats, Table 16): 1.35
- Ketoleucine (m7, male rats, Table 16): 0.93
- Lactate (m7, male rats, Table 16): 0.68 *
- Metanephrine (m7, male rats, Table 16): 0.86
- Pantothenic acid (m7, male rats, Table 16): 0.65 *
- Phosphatidylcholine (C18:1,C18:2) (m7, male rats, Table 16): 0.76 *
- Phosphatidylcholine No 04 (m7, male rats, Table 16): 0.44 *
- TAG (C18:1,C18:2) (m7, male rats, Table 16): 0.77 *
- Testosterone (m7, male rats, Table 16): 0.1 *
- Tyrosine (m7, male rats, Table 16): 0.93 *
- 3,4-Dihydroxyphenylacetic acid (DOPAC) (m7, male rats, Table 15d): 1.08
- 18-Hydroxy-11-deoxycorticosterone (m7, male rats, Table 15d): 0.4
- Glycerol phosphate, lipid fraction (m7, male rats, Table 15d): 0.26 *
- Homovanillic acid (HVA) (m7, male rats, Table 15d): 0.6 *
- Kynurenic acid (m7, male rats, Table 15d): 0.66 *
- Lysophosphatidylcholine (C18:1) (m7, male rats, Table 15d): 0.89 *
- Lysophosphatidylethanolamine (C22:5) (m7, male rats, Table 15d): 0.75 *
- Phosphate, lipid fraction (m7, male rats, Table 15d): 0.47 *
- Phosphatidylcholine (C18:0,C18:1) (m7, male rats, Table 15d): 0.62 *
- Sphingomyelin (d18:1, C16:0) (m7, male rats, Table 15d): 0.23 *
- Sphingomyelin (d18:1,C23:0) (m7, male rats, Table 15d): 0.25 *
- Sphingomyelin (d18:1,C24:0) (m7, male rats, Table 15d): 0.37 *
- Sphingomyelin (d18:2,C18:0) (m7, male rats, Table 15d): 0.24 *
- TAG No 02 (m7, male rats, Table 15d): 0.57 *
- myo-Inositol, lipid fraction (m7, male rats, Table 15d): 0.24 *
- Cholesterol (m7, Table 14b): 0.22
- Choline plasmalogen No 02 (m7, Table 14b): 0.44
- Lignoceric acid (C24:0) (m7, Table 14b): 0.14
- Sphingomyelin (d18:1, C16:0) (m7, Table 14b): 0.23
- Sphingomyelin (d18:2, C16:0) (m7, Table 14b): 0.22
- erythro-Sphingosine (d18:1) (m7, Table 14b): 0.1
- Mannose (m14, male rats): 1.4 *
- 3,4-Dihydroxyphenylacetic acid (DOPAC) (m14, male rats, Table 16): 0.75 *
- 3,4-Dihydroxyphenylglycol (DOPEG) (m14, male rats, Table 16): 0.86 *
- Androstenedione (m14, male rats, Table 16): 0.02 *
- Citrate (m14, male rats, Table 16): 0.89 *
- Glycerol, polar fraction (m14, male rats, Table 16): 0.51 *
- Histamine (m14, male rats, Table 16): 1.6
- Ketoleucine (m14, male rats, Table 16): 0.85 *
- Lactate (m14, male rats, Table 16): 0.94
- Metanephrine (m14, male rats, Table 16): 0.48 *
- Pantothenic acid (m14, male rats, Table 16): 0.82 *
- Phosphatidylcholine (C18:1,C18:2) (m14, male rats, Table 16): 0.74 *
- Phosphatidylcholine No 04 (m14, male rats, Table 16): 0.42 *
- TAG (C18:1,C18:2) (m14, male rats, Table 16): 0.45 *
- Testosterone (m14, male rats, Table 16): 0.06 *
- Tyrosine (m14, male rats, Table 16): 1
- 3,4-Dihydroxyphenylacetic acid (DOPAC) (m14, male rats, Table 15d): 0.75 *
- 18-Hydroxy-11-deoxycorticosterone (m14, male rats, Table 15d): 0.47 *
- Glycerol phosphate, lipid fraction (m14, male rats, Table 15d): 0.24 *
- Homovanillic acid (HVA) (m14, male rats, Table 15d): 0.5 *
- Kynurenic acid (m14, male rats, Table 15d): 0.8 *
- Lysophosphatidylcholine (C18:1) (m14, male rats, Table 15d): 0.82 *
- Lysophosphatidylethanolamine (C22:5) (m14, male rats, Table 15d): 0.83 *
- Phosphate, lipid fraction (m14, male rats, Table 15d): 0.44 *
- Phosphatidylcholine (C18:0,C18:1) (m14, male rats, Table 15d): 0.63 *
- Sphingomyelin (d18:1, C16:0) (m14, male rats, Table 15d): 0.22 *
- Sphingomyelin (d18:1,C23:0) (m14, male rats, Table 15d): 0.33 *
- Sphingomyelin (d18:1,C24:0) (m14, male rats, Table 15d): 0.41 *
- Sphingomyelin (d18:2,C18:0) (m14, male rats, Table 15d): 0.26 *
- TAG No 02 (m14, male rats, Table 15d): 0.74 *
- myo-Inositol, lipid fraction (m14, male rats, Table 15d): 0.29 *
- Cholesterol (m14, Table 14b): 0.22
- Choline plasmalogen No 02 (m14, Table 14b): 0.52
- Lignoceric acid (C24:0) (m14, Table 14b): 0.17
- Sphingomyelin (d18:1, C16:0) (m14, Table 14b): 0.22
- Sphingomyelin (d18:2, C16:0) (m14, Table 14b): 0.18
- erythro-Sphingosine (d18:1) (m14, Table 14b): 0.06
- Mannose (m28, male rats): 1.31 *
- 3,4-Dihydroxyphenylacetic acid (DOPAC) (m28, male rats, Table 16): 0.54 *
- 3,4-Dihydroxyphenylglycol (DOPEG) (m28, male rats, Table 16): 0.72 *
- Androstenedione (m28, male rats, Table 16): 0.02 *
- Citrate (m28, male rats, Table 16): 1.03
- Glycerol, polar fraction (m28, male rats, Table 16): 0.61 *
- Histamine (m28, male rats, Table 16): 0.65 *
- Ketoleucine (m28, male rats, Table 16): 0.72 *
- Lactate (m28, male rats, Table 16): 0.76 *
- Metanephrine (m28, male rats, Table 16): 0.66 *
- Pantothenic acid (m28, male rats, Table 16): 0.77 *
- Phosphatidylcholine (C18:1,C18:2) (m28, male rats, Table 16): 0.96
- Phosphatidylcholine No 04 (m28, male rats, Table 16): 0.81 *
- TAG (C18:1,C18:2) (m28, male rats, Table 16): 1.26
- Testosterone (m28, male rats, Table 16): 0.06 *
- Tyrosine (m28, male rats, Table 16): 0.82 *
- 3,4-Dihydroxyphenylacetic acid (DOPAC) (m28, male rats, Table 15d): 0.54 *
- 18-Hydroxy-11-deoxycorticosterone (m28, male rats, Table 15d): 0.52 *
- Glycerol phosphate, lipid fraction (m28, male rats, Table 15d): 0.61 *
- Homovanillic acid (HVA) (m28, male rats, Table 15d): 0.49 *
- Kynurenic acid (m28, male rats, Table 15d): 0.72 *
- Lysophosphatidylcholine (C18:1) (m28, male rats, Table 15d): 0.92
- Lysophosphatidylethanolamine (C22:5) (m28, male rats, Table 15d): 0.8
- Phosphate, lipid fraction (m28, male rats, Table 15d): 0.66 *
- Phosphatidylcholine (C18:0,C18:1) (m28, male rats, Table 15d): 0.87
- Sphingomyelin (d18:1, C16:0) (m28, male rats, Table 15d): 0.35 *
- Sphingomyelin (d18:1,C23:0) (m28, male rats, Table 15d): 0.55 *
- Sphingomyelin (d18:1,C24:0) (m28, male rats, Table 15d): 0.54 *
- Sphingomyelin (d18:2,C18:0) (m28, male rats, Table 15d): 0.35 *
- TAG No 02 (m28, male rats, Table 15d): 0.51 *
- myo-Inositol, lipid fraction (m28, male rats, Table 15d): 0.54 *
- Cholesterol (m28, Table 14b): 0.4
- Choline plasmalogen No 02 (m28, Table 14b): 0.55
- Lignoceric acid (C24:0) (m28, Table 14b): 0.35
- Sphingomyelin (d18:1, C16:0) (m28, Table 14b): 0.35
- Sphingomyelin (d18:2, C16:0) (m28, Table 14b): 0.28
- erythro-Sphingosine (d18:1) (m28, Table 14b): 0.21
